Like-named read-outs stand apart in the source and are kept apart here.
Legend:
[1] = system: contractile response to bradykinin (isolated guinea pig ileum); assay: Augmentation of contractile response of isolated guinea pig ileum to bradykinin; type: cell-based; conditions: bradykinin 0.005 μg/ml, compound added 5 min before, 30° C., read-out: Bradykinin AC50 (50% augmentation of bradykinin activity inducing the contraction of guinea pig ileum)
Protocol: (§1) Isolated guinea pig ileum was suspended in the organ bath containing 20 ml of Tyrode's solution of 30° C. gassed with 95% O2 +5% CO2. The contraction induced by the addition of angiotensin I (0.1 μg/ml) at intervals of 10 minutes was recorded on a recticorder (Nihon Koden) for 90 seconds using FD pick up (ST-1T-H, Nihon Koden).
(§2) The test compounds were added to the bath 5 minutes before the addition of angiotensin I.
From the fact that kininase II, which destroys bradykinin having contractive action on isolated guinea pig ileum, is thought to be identical with angiotensin I-converting enzyme, augmentation of the contractile response to bradykinin by test compounds was examined by using bradykinin (0.005 μg/ml) in place of angiotensin I according to the above mentioned method.

[2] = target: T1, angiotensin I-converting enzyme (Oryctolagus cuniculus, UniProt P12822); assay: Inhibition of angiotensin I-converting enzyme by spectrophotometry (HHL substrate); type: biochemical; conditions: enzyme from rabbit lung; 5 mM HHL; pH 8.3; 37° C., 30 min
T1 construct: angiotensin I-converting enzyme extracted from rabbit lung; from tissue; host or cells: rabbit lung
T1 sequence (P12822 34-1310): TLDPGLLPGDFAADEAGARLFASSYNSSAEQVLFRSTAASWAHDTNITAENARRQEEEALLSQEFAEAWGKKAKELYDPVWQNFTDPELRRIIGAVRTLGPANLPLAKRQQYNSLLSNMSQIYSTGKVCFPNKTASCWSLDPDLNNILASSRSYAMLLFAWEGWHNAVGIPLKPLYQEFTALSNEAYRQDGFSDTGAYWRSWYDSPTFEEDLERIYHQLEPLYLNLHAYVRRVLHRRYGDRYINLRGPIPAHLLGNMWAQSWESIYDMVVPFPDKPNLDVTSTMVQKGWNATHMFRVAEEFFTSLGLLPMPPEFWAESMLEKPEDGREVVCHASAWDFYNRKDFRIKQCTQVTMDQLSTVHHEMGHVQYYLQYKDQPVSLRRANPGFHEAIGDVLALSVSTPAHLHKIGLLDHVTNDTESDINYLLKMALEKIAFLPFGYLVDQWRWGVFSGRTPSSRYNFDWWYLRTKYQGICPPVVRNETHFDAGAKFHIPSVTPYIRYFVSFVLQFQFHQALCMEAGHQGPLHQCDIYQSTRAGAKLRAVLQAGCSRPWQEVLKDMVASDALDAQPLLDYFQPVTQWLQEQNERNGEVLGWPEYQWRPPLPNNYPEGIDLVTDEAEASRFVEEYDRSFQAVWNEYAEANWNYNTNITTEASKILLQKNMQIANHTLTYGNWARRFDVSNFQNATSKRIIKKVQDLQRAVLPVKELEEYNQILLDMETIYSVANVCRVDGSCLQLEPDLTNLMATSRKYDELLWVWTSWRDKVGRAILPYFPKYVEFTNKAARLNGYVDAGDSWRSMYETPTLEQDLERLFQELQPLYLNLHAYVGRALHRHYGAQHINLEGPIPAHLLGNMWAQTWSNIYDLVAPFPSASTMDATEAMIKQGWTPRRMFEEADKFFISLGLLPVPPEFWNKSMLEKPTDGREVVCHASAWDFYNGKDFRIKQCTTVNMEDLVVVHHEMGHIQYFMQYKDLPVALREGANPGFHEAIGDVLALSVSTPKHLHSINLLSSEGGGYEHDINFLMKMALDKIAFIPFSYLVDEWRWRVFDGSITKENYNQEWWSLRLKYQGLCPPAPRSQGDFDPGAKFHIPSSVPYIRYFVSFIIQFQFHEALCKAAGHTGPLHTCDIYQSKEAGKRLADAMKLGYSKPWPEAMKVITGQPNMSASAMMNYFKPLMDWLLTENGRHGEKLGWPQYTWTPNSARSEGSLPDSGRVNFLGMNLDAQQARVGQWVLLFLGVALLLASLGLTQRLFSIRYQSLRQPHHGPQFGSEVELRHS
Protocol: That is, the absorbance of hippuric acid was measured, which is liberated by incubating hippuryl-L-histidyl-L-leucine (HHL) as substrate in the presence of angiotensin I-converting enzyme extracted from rabbit lung.
(§3) Measurement of inhibitory activity of angiotensin I-converting enzyme
The reaction mixture is as follows:
100 mM phosphate buffer (pH 8.3)
10^-3 ~10^-9 M enzyme inhibitor
0.25 ml of the above mixture was incubated at 37° C. for 30 minutes and the reaction was stopped by adding 0.25 ml of 1 N hydrochloric acid. To this solution, 1.5 ml of ethyl acetate was added in order to extract hippuric acid. 1.0 ml of ethyl acetate layer was collected and evaporated to dryness, and the residue obtained was dissolved in 1.0 ml of water.
The inhibitory activity of angiotensin I-converting enzyme was calculated by the following formula: [formula]

[3] = system: contractile response of isolated guinea pig ileum to angiotensin I; assay: Inhibition of contractile response of isolated guinea pig ileum to angiotensin I; type: cell-based; conditions: angiotensin I 0.1 μg/ml, compound added 5 min before, 30° C., read-out: Angiotensin I IC50 (50% inhibition of angiotensin I activity inducing the contraction of guinea pig ileum)
Source text: As the method of measurement of angiotensin I-converting enzyme activity, bioassay for the contractile response of isolated smooth muscle or the pressor response of normal animals and biochemical assay for the enzyme isolated from lung or other organs of animals are known. The former is found more advantageous than the latter for the examination of the convertion of angiotensin I to angiotensin II in vivo.
In the present study, therefore, we adopted the bioassay for contractile response of isolated guinea pig ileum to angiotensin I.
as §3, §1, §2
The inhibitory activity of angiotensin I-converting enzyme was calculated by the following formula. [formula] A: contractile intensity of angiotensin I before addition of the compound B: contractile intensity of angiotensin I after addition of the compound

[4] = system: pressor response to angiotensin I; assay: Inhibition of pressor response to angiotensin I in rats after oral administration; type: in vivo, rat (male Wistar); conditions: angiotensin I 300 ng/kg i.v.; for Inhibition (%) of pressor response to angiotensin I, 5 min / Inhibition (%) of pressor response to angiotensin I, 15 min / Inhibition (%) of pressor response to angiotensin I, 25 min / Inhibition (%) of pressor response to angiotensin I, 35 min / Inhibition (%) of pressor response to angiotensin I, 45 min / Inhibition (%) of pressor response to angiotensin I, 55 min / Inhibition (%) of pressor response to angiotensin I, 65 min / Inhibition (%) of pressor response to angiotensin I, 75 min / Inhibition (%) of pressor response to angiotensin I, 85 min: dose: 3, 45, 49 1.8 mg/kg, 4, 46 1.3, 50 1.4, 76 2.0, 77 1.5; for Inhibition (%) of pressor response to angiotensin I, 95 min: dose: 45, 49 1.8 mg/kg, 4, 46 1.3, 50 1.4, 76 2.0, 77 1.5; for Inhibition (%) of pressor response to angiotensin I, 105 min / Inhibition (%) of pressor response to angiotensin I, 115 min: dose: 45, 49 1.8 mg/kg, 46 1.3, 50 1.4, 76 2.0, 77 1.5
Protocol: Male Wistar strain rats weighing about 200-300 g were used.
Under ether anesthesia, polyethylene cannulae are inserted into carotid arthery and jugular vein. The cannula to carotid artery is connected to an electric transducer, while the cannula to jugular vein is connected to an apparatus for continuous infusion. After the complete recovery from anesthesia, angiotensin I is infused intravenously in a dose of 300 ng/kg by the apparatus for continuous infusion, and the pressor response is recorded by polygraph (Nihon Koden, RM-150).
The compounds of this invention suspended in 0.5% tragacanth solution are administered orally in a dose of 0.3 ml per 100 g of body weight, and the pressor response to angiotensin I infused intravenously is measured with time.
The inhibitory activity of the compounds against angiotensin I-converting enzyme is expressed as the percent inhibition of pressor response to angiotensin I.

Row | Structure (SMILES) | AC50 [1] [nM] | IC50 [2] [nM] | IC50 ([3]; Cavia porcellus) [nM] | IC50 [3] [nM] | Inhibition (%) of pressor response to angiotensin I, 5 min [4] [%] | Inhibition (%) of pressor response to angiotensin I, 15 min [4] [%] | Inhibition (%) of pressor response to angiotensin I, 25 min [4] [%] | Inhibition (%) of pressor response to angiotensin I, 35 min [4] [%] | Inhibition (%) of pressor response to angiotensin I, 45 min [4] [%] | Inhibition (%) of pressor response to angiotensin I, 55 min [4] [%] | Inhibition (%) of pressor response to angiotensin I, 65 min [4] [%] | Inhibition (%) of pressor response to angiotensin I, 75 min [4] [%] | Inhibition (%) of pressor response to angiotensin I, 85 min [4] [%] | further results
1 | O=C(O)[C@@H]1CSC(CCS)N1C(=O)CCS (single isomer, unassigned) [Compound 6a] | 15 | 650 | 410 | – | – | – | – | – | – | – | – | – | – | –
2 | O=C(O)[C@@H]1CSC(CCS)N1C(=O)CCS (single isomer, unassigned) [Compound 6b] | 3.7 | 370 | – | 300 | – | – | – | – | – | – | – | – | – | –
3 | C[C@H](CS)C(=O)N1C(CCS)SC[C@H]1C(=O)O (single isomer, unassigned) [Compound 8a] | – | 250 | 85 | – | – | – | – | – | – | – | – | – | – | AC50 ([1]; Cavia porcellus): 1.4 nM
4 | C[C@H](CS)C(=O)N1C(CCS)SC[C@H]1C(=O)O (single isomer, unassigned) [Compound 8b] | 1.1 | 290 | – | 140 | – | – | – | – | – | – | – | – | – | –
5 | C[C@H](CS)C(=O)N1C(Cc2ccccc2)SC[C@H]1C(=O)O (single isomer, unassigned) [Compound 10a] | – | 2800 | 810 | – | – | – | – | – | – | – | – | – | – | AC50 ([1]; Cavia porcellus): 13 nM
6 | C[C@H](CS)C(=O)N1C(Cc2ccccc2)SC[C@H]1C(=O)O (single isomer, unassigned) [Compound 10b] | 10 | 310 | – | 580 | – | – | – | – | – | – | – | – | – | –
7 | C[C@H](CSC(=O)c1ccccc1)C(=O)N1C(C2CCCCC2)SC[C@H]1C(=O)O (stereo partly drawn) [Compound 3] | – | – | – | – | 35.2 | 40.8 | 26.9 | 17.9 | 14.2 | 14.8 | 6.3 | 9.5 | 5.8 | –
8 | O=C(SCCC(=O)N1C(c2ccccc2O)SC[C@H]1C(=O)O)c1ccccc1 (stereo partly drawn) [Compound 45, (4R)-3-(S-Benzoyl-3-mercaptopropanoyl)-2-(2-hydroxyphenyl)-4-thiazolidinecarboxylic acid] | – | – | – | – | 20.0 | 26.6 | 30.1 | 31.8 | 20.9 | 13.5 | 19.0 | 14.9 | 20.9 | Inhibition (%) of pressor response to angiotensin I, 95 min [4]: 10.3%; Inhibition (%) of pressor response to angiotensin I, 105 min [4]: 10.3%; Inhibition (%) of pressor response to angiotensin I, 115 min [4]: 8.8%
9 | COc1ccc(C2SC[C@@H](C(=O)O)N2C(=O)[C@H](C)CSC(=O)c2ccccc2)c(O)c1 (stereo partly drawn) [Compound 76] | – | – | – | – | 26.0 | 45.9 | 56.1 | 55.9 | 58.2 | 47.1 | 48.9 | 40.7 | 41.7 | Inhibition (%) of pressor response to angiotensin I, 95 min [4]: 32.2%; Inhibition (%) of pressor response to angiotensin I, 105 min [4]: 30.6%; Inhibition (%) of pressor response to angiotensin I, 115 min [4]: 28.5%
